Data set [1] has as its system LNCaP cells. Kind of data set: Uptake of fluorescein analogues of D2 by LNCaP cells. In kind it is cell-based. To be noted: summary statement. The protocol:
FIGS. 14A-C. Effect of chemical conjugation of Fluorescein to D2 at the amino and carboxy terminus (FIG. 14A) on uptake by LnCaP cells at 4 hours (FIG. 14B) and on DHT-induced proliferation of PCa cells (FIG. 14C).
In FIG. 14, two fluorescent analogues of D2 were prepared, one by introducing a fluorescein moiety to the C-terminus of D2 (CF1-D2) and the other by placing it at the N-terminus (CF2-D2).

The test system of data set [2] is erk. The data set is described as follows: erk phosphorylation after serum starvation (western blot, FIG. 16). To be noted: following serum starvation, D1 at higher concentrations (500 nM). In kind it is cell-based. The protocol:
FIG. 16. Evidence for utility of higher concentrations of D1 in blocking erk phosphorylation: following serum starvation, cells were treated with either D1 or D2 and assessed for their ability to block erk phosphorylation.
D2, and to a less extent D1, targets a validated target in prostate cancer, has the potential to be an AR-selective modulator, provides a novel mechanism of action, and will likely provide a sustained effect in the context of therapy.

The subject of data set [3] is erk. The data set is described as follows: DHT-mediated non-genomic activation of erk. In kind it is cell-based. The conditions noted are these: FIG. 12.
Data set [4] can be described thus: Stability of D2 in culture and in LNCaP cell lysate (HPLC). In kind it is in vitro ADME. From the text: FIGS. 4A-F. (FIG. 4A) Chemical structure of the bis-benzamide (D2). (FIG. 4B) the lowest-energy conformation of D2. (FIG. 4C) the stereoview of the superimposition of D2 on a helical turn.
For data set [5], the system named is PSA and TMPRSS promoter. The data set is described as follows: QPCR of PSA and TMPRSS, DHT-induced. In kind it is cell-based. The source says: FIG. 8 confirms these findings by QPCR experiment evaluating the effect of D1 and D2 on DHT-induced TMPRSS and PSA gene expression at the RNA level in LNCaP cells (bottom left panel) and by western blot analyses as evaluated by the effect of D1 and D2 on the expression of PSA, androgen receptor and actin in LAPC4 cells at the protein level. […] Confirmation of these findings were obtained by QPCR and western blot analyses.
(§1) At the protein level, D2, but not D1, was able to block DHT-induced expression of PSA protein. Again, the suppresion of DHT-induced transcription from an ARE could be overcome by overexpression of either AR or PELP1 ([…]). Overexpression of PELP1 was able to rescue the D2-mediated suppression of DHT-induced transcription nearly back to baseline.

In data set [6] the test system is prostate cancer cells. Kind of data set: Toxicity in vitro and in vivo. From the text: The peptidomimetics of the present invention are non-toxic under in vitro and in vivo conditions. The development of these peptidomimetics represents a quantum leap in the development of a drug to target AR signaling. […] In addition to improvements in the helical face and presentation of the leucines, the inventors have proven efficacy of this system against prostate cancer cell proliferation both in vitro and in vivo. Thus, in contrast to existing technology, the inventors have developed and tested an active peptidomimetic against prostate cancer and other androgen receptor involved cancers.
They have shown that this synthetic peptidomimetic D2 is capable of blocking AR-PELP-1 interaction, nuclear translocation of AR, AR mediated genomic signaling as well as DHT-mediated proliferation of prostate cancer cells in vitro. The IC50 of D2 appears to be around 40 nM. The effect of the D2 peptidomimetic appears to be specific to blocking AR-PELP-1 interaction, as overexpression of AR or PELP-1 may overcome D2-mediated blockade. […] In comparison, administration of either control peptidomimetics or control soluent has no effect on the growth of prostate cancer cells in vitro or in vivo. In addition, the inventors have generated and tested hundreds of variants of D2 and have identified related peptidomimetics with similar or equivalent potency.

In data set [7] the test system is prostate cancer xenografts. Kind of data set: Subcutaneous prostate cancer xenografts. In kind it is in vivo, nude mice. As to the method:
FIGS. 10A-E. D2 blocks proliferation of prostate cancer cells in vitro and in vivo (a) Effect of pretreatment with 100 nM of D1 and D2 on DHT-induced proliferation in multiple prostate cancer cell lines in MTT assay. Numbers are normalized to a baseline of 100, which represents the untreated rate of proliferation. (b) Effect of pretreatment with 100 nM of D1 and D2 on DHT-induced proliferation in LNCaPcells on a Cyquant assay. (c) Dose dependent curve of D2 on proliferation of LAPC4 cells. (d) Rescue of DHT induced proliferation by overexpression of PELP1 following suppression of DHT induced proliferation with 100 nM of D2. (e). Effect of direct intratumoral injections of D1 and D2 on the proliferation of prostate cancer xenografts in animal models: Following establishment of subcutaneous xenografts in animal models, daily direct intratumoral injections of D1 and D2 were performed. Bioluminesence imaging was used to track the growth of the tumors and the effect of D1 and D2 quantitated as shown in the graph.
They have shown that this synthetic peptidomimetic D2 is capable of blocking AR-PELP-1 interaction, nuclear translocation of AR, AR mediated genomic signaling as well as DHT-mediated proliferation of prostate cancer cells in vitro. The IC50 of D2 appears to be around 40 nM. […]

Data set [8] concerns ARE-luciferase reporter. Kind of data set: DHT-induced transcription from minimal ARE-luciferase reporter. In kind it is cell-based. To be noted: LNCaP, CWR22v1 and LAPC4 cell lines.
From the text: FIG. 9. […] This effect of D2 could be rescued by overexpression of AR (bottom left panel) or PELP1 (bottom right panel).
as §1
(In a reporter assay the amount or activity of a reporter protein is the signal.)

Entries after “also recorded” stand apart in the source; their conditions may differ.

As to `COC(=O)c1ccc(NC(=O)c2ccc([N+](=O)[O-])c(OCC(C)C)c2)c(OCC(C)C)c1` [D2], in data set [1], the “entry into prostate cancer cells” value is reported as “enters the prostate cancer cells”. Further, in data set [2], the “erk activation / phosphorylation” value is “blocks at lower concentrations”. Moreover, the “DHT-mediated non-genomic activation of erk” value in data set [3] is reported as “no effect; also recorded: does not block”. Further, the “stability in cell lysate” value in data set [4] (LNCaP cell lysate, 37° C., 7 days) was “stable in cell lysate of LNCaP over 7 days”. In data set [4] (in culture, FIG. 4E), the “stability in culture (HPLC)” value is on record as “single peak on the HPLC”. In addition, the “DHT-induced transcription from ARE-driven promoters at RNA level (QPCR)” value in data set [5] is given as “block DHT-induced transcription from ARE-driven promoters was confirmed”. Further, the toxicity entry in data set [6] is “non-toxic to prostate cancer cells”. Also, the “growth of prostate cancer cells implanted subcutaneously” value in data set [7] (nude mice, intratumoral or intraperitoneal administration) was “significantly abrogate the growth”. In data set [7] (protein extracts of tumors after daily intratumoral injections), the “AR-PELP1 complex formation in xenograft tumors” value is “biologically active in blocking AR-PELP1 interaction; also recorded: able to block”. Also, the “DHT-induced transcription from minimal ARE-luciferase reporter” value in data set [8] is “able to block; also recorded: block DHT-Induced gene expression”.

The values above are taken from patent publication US10618869B2, “Oligo-benzamide compounds and their use” (The Board of Regents of the University of Texas System, priority 2010, dated 2020).
